Measured values reported in paper PMC7440915, “Discovery of surrogate agonists for visceral fat Treg cells that modulate metabolic indices in vivo” (eLife, 2020).
Where no end group is shown, it is not given here.

How the values were obtained:
[1] = system: vTreg53 Treg cells; assay: Proliferation of transferred vTreg53 Treg cells in spleen after immunization; type: in vivo, mouse; details: CFA/Fat1562, 200 µg s.c., three days
Excerpt: (§1) Figure 4. SPs induce proliferation and activation of vTreg53 Treg cells in vitro and in vivo. (A–D) Proliferation and activation of vTreg53 Treg cells by different concentrations of SPs for 3 days in vitro (n = 3). (A) Representative flow cytometric plot of cell division. (B) Summary of cell proliferation. (C) Mean flourescence intensity (MFI) of CD44 staining in clonotype^+ Treg cells. (D) MFI of CD62L staining in clonotype^+ Treg cells. (E) Proliferation of transferred CD45.2^+ vTreg53 Treg cells in the spleen of CD45.1^+ B6 recipient mice immunized s.c. with CFA or CFA/Fat1562 at day 3 (n = 3). […]
(§2) To assess early Treg proliferation following peptide stimulation in vivo, 0.4 million Treg cells were sorted from pooled Spl and LNs of 6-8wk-old male CD45.2^+ Tg^+ Foxp3-GFP^KI/y mice by Moflo, labeled by the CellTrace Violet dye (ThermoFisher Scientific), and were i.v.-injected into 6-8wk old male B6.CD45.1^+ mice. […] Proliferation of clonotype^+ Tregs in the spleen was determined three days later. […] Six weeks later, the recipient mice were immunized with 200 µg CFA/peptides s.c. on the lower back, and one week later were boosted with 100 μg IFA/peptides i.p. After another week, clonotype^+ CD45.2^+ Treg cells from the Spl/LNs or VAT of recipient mice were analyzed by flow cytometry and double-sorted for ultra-low-input RNA-seq. […]

[2] = system: vTreg53 Treg cells; assay: Expansion of transferred vTreg53 Treg cells in Spl/LN or VAT after prime and boost; type: in vivo, mouse; details: compared with adjuvant alone, CFA s.c. then IFA i.p.
Excerpt: as §1, §2

TMYKNPRPMAATG [Fat1562]
proliferation of transferred clonotype^+ Treg cells in spleen [1]: robust proliferation | expansion of clonotype^+ Treg cells in VAT [2]: > 25 fold
